Measured values: US10913727B2, “Modulators of the integrated stress pathway” (Calico Life Sciences LLC, priority 2016, dated 2021)

tested on: HEK293T cells carrying the ATF4 luciferase reporter; test: ATF4-Luc assay, in vitro model of Vanishing Cell White Matter Disease (VWMD); format: cell-based; details: Homo sapiens, HEK-293T, 1 μg/mL tunicamycin, 7 hours, One Glo luminescence
Method: In order to test exemplary compounds of the invention in a cellular context, a stable VWMD cell line was first constructed. The ATF4 reporter was prepared by fusing the human full-length ATF4 5′-UTR (NCBI Accession No. BC022088.2) in front of the firefly luciferase (FLuc) coding sequence lacking the initiator methionine as described in Sidrauski et al (eLife 2013). The construct was used to produce recombinant retroviruses using standard methods and the resulting viral supernatant was used to transduce HEK293T cells, which were then subsequently selected with puromycin to generate a stable cell line.
HEK293T cells carrying the ATF4 luciferase reporter were plated on polylysine coated 384-well plates (Greiner Bio-one) at 30,000 cells per well. Cells were treated the next day with 1 μg/mL tunicamycin and 200 nM of a compound of Formula (I) for 7 hours. Luminescence was measured using One Glo (Promega) as specified by the manufacturer. Cells were maintained in DMEM with L-glutamine supplemented with 10% heat-inactivated FBS (Gibco) and Antibiotic-Antimycotic solution (Gibco).
Table 2 below summarizes the EC50 data obtained using the ATF4-Luc assay for exemplary compounds of the invention.

First: Cc1ccn2c(=O)c(C(=O)NC34CC(NC(=O)COc5ccc(Cl)c(F)c5)(C3)C4)cnc2c1 [Compound 314, N-{3-[2-(4-chloro-3-fluorophenoxy)acetamido]bicyclo[1.1.1]pentan-1-yl}-8-methyl-4-oxo-4H-pyrido[1,2-a]pyrimidine-3-carboxamide]
Second: Cc1ccc(C(=O)NC23CC(NC(=O)COc4ccc(Cl)c(F)c4)(C2)C3)cn1 [Compound 140, N-{3-[2-(4-chloro-3-fluorophenoxy)acetamido]bicyclo[1.1.1]pentan-1-yl}-6-methylpyridine-3-carboxamide]
The EC50 of the first is higher: > 2000 nM for the first, 250 to 1000 nM for the second. The second is the more potent here.

`O=C(COc1ccc(Cl)c(F)c1)NC12CCC(NC(=O)c3ccc(OC(F)F)nc3)(C1)C2` [Compound 574, N-{4-[2-(4-chloro-3-fluorophenoxy)acetamido]bicyclo[2.1.1]hexan-1-yl}-6-(difluoromethoxy)pyridine-3-carboxamide] and `O=C(COc1ccc(Cl)c(F)c1)NC12CCC(NC(=O)c3ccc(OC(F)(F)F)nc3)(C1)C2` [Compound 298, N-{4-[2-(4-chloro-3-fluorophenoxy)acetamido]bicyclo[2.1.1]hexan-1-yl}-6-(trifluoromethoxy)pyridine-3-carboxamide] fall in the same range of EC50: 50 to 250 nM for the first, 50 to 250 nM for the second.

`COCc1nc(C(=O)NC23CC(NC(=O)COc4ccc(Cl)c(F)c4)(C2)C3)cs1` [Compound 926, N-{3-[2-(4-chloro-3-fluorophenoxy)acetamido]bicyclo[1.1.1]pentan-1-yl}-2-(methoxymethyl)-1,3-thiazole-4-carboxamide] and `O=C(COc1ccc(Cl)c(F)c1)NC12CC(NC(=O)c3ccccn3)(C1)C2` [Compound 129, N-{3-[2-(4-chloro-3-fluorophenoxy)acetamido]bicyclo[1.1.1]pentan-1-yl}pyridine-2-carboxamide] fall in the same range of EC50: 50 to 250 nM for the first, 50 to 250 nM for the second.

Compared with `CCCc1nc(C(=O)NC23CCC(NC(=O)COc4ccc(Cl)c(F)c4)(CC2)C(O)C3)cs1` (stereo not shown) [Compound 502, N-{4-[2-(4-chloro-3-fluorophenoxy)acetamido]-3-hydroxybicyclo[2.2.2]octan-1-yl}-2-propyl-1,3-thiazole-4-carboxamide], `CCc1ccnc(C(=O)NC23CCC(NC(=O)COc4ccc(Cl)c(F)c4)(CC2)C(O)C3)c1` (stereo not shown) [Compound 918, N-{4-[2-(4-chloro-3-fluorophenoxy)acetamido]-3-hydroxybicyclo[2.2.2]octan-1-yl}-4-ethylpyridine-2-carboxamide] is higher in EC50: < 50 nM for the first, 250 to 1000 nM for the second. The first is the more potent here.

Compared with `O=C(COc1ccc(Cl)c(F)c1)NC12CC(NC(=O)c3ccc[nH]3)(C1)C2` [Compound 307, N-{3-[2-(4-chloro-3-fluorophenoxy)acetamido]bicyclo[1.1.1]pentan-1-yl}-1H-pyrrole-2-carboxamide], `CN(C)c1ccccc1C(=O)NC12CC(NC(=O)COc3ccc(Cl)c(F)c3)(C1)C2` [Compound 532, N-{3-[2-(4-chloro-3-fluorophenoxy)acetamido]bicyclo[1.1.1]pentan-1-yl}-2-(dimethylamino)benzamide] is higher in EC50: 250 to 1000 nM for the first, > 2000 nM for the second. The first is the more potent here.

First: CCc1cc(C(=O)NC23CCC(NC(=O)COc4ccc(Cl)c(F)c4)(C2)C3)n(C)n1 [Compound 571, N-{4-[2-(4-chloro-3-fluorophenoxy)acetamido]bicyclo[2.1.1]hexan-1-yl}-3-ethyl-1-methyl-1H-pyrazole-5-carboxamide]
Second: Cc1cc(C(=O)NC23CCC(NC(=O)COc4ccc(Cl)c(F)c4)(CC2)[C@H](O)C3)n(C)n1 (single isomer, unassigned) [Compound 486]
The EC50 of the first is higher: 250 to 1000 nM for the first, 50 to 250 nM for the second. The second is the more potent here.

`Cn1c(=O)n(C)c2cc(C(=O)NC34CC(NC(=O)COc5ccc(Cl)c(F)c5)(C3)C4)ccc21` [Compound 776, N-{3-[2-(4-chloro-3-fluorophenoxy)acetamido]bicyclo[1.1.1]pentan-1-yl}-1,3-dimethyl-2-oxo-2,3-dihydro-1H-benzimidazole-5-carboxamide] and `CC(=O)Nc1ccc(C(=O)NC23CC(NC(=O)COc4ccc(Cl)c(F)c4)(C2)C3)cn1` [Compound 805, 6-acetamido-N-{3-[2-(4-chloro-3-fluorophenoxy)acetamido]bicyclo[1.1.1]pentan-1-yl}pyridine-3-carboxamide] cannot be ordered by EC50: > 2000 nM for the first, > 2000 nM for the second.

Compared with `O=C(COc1ccc(Cl)c(F)c1)NC12CC(Nc3cncc(-c4ccc(Cl)cc4)n3)(C1)C2` [Compound 395, 2-(4-chloro-3-fluorophenoxy)-N-(3-{[6-(4-chlorophenyl)pyrazin-2-yl]amino}bicyclo[1.1.1]pentan-1-yl)acetamide], `O=C(COc1ccc(Cl)c(F)c1)NC12CC(Nc3cnc(C(F)F)cn3)(C1)C2` [Compound 649, 2-(4-chloro-3-fluorophenoxy)-N-(3-{[5-(difluoromethyl)pyrazin-2-yl]amino}bicyclo[1.1.1]pentan-1-yl)acetamide] is lower in EC50: > 2000 nM for the first, 1000 to 2000 nM for the second. The second is the more potent here.

First: Cn1nc(C(F)F)cc1C(=O)NC12CCC(NC(=O)COc3ccc(Cl)c(F)c3)(CC1)C(O)C2 (stereo not shown) [Compound 437, N-{4-[2-(4-chloro-3-fluorophenoxy)acetamido]-3-hydroxybicyclo[2.2.2]octan-1-yl}-3-(difluoromethyl)-1-methyl-1H-pyrazole-5-carboxamide]
Second: O=C(COc1ccc(Cl)c(F)c1)NC12CCC(NC(=O)c3cccc(O)n3)(CC1)CC2O (stereo not shown) [Compound 943, N-{4-[2-(4-chloro-3-fluorophenoxy)acetamido]-3-hydroxybicyclo[2.2.2]octan-1-yl}-6-hydroxypyridine-2-carboxamide]
The EC50 of the first is lower: < 50 nM for the first, 50 to 250 nM for the second. The first is the more potent here.

Compared with `O=C(COCc1cccc(Cl)c1)NC12CC(NC(=O)c3cnc(C(F)F)cn3)(C1)C2` [Compound 947, N-(3-{2-[(3-chlorophenyl)methoxy]acetamido}bicyclo[1.1.1]pentan-1-yl)-5-(difluoromethyl)pyrazine-2-carboxamide], `CCc1cnc(C(=O)NC23CC(NC(=O)COc4ccc(Cl)c(Cl)c4)(C2)C3)cn1` [Compound 711, N-{3-[2-(3,4-dichlorophenoxy)acetamido]bicyclo[1.1.1]pentan-1-yl}-5-ethylpyrazine-2-carboxamide] is lower in EC50: > 2000 nM for the first, < 50 nM for the second. The second is the more potent here.

First: O=C(COc1ccc(Cl)c(F)c1)NC12CC(NC(=O)c3cc(OC(F)F)ccn3)(C1)C2 [Compound 300, N-{3-[2-(4-chloro-3-fluorophenoxy)acetamido]bicyclo[1.1.1]pentan-1-yl}-4-(difluoromethoxy)pyridine-2-carboxamide]
Second: O=C(COc1ccc(Cl)c(F)c1)NC12CC(NC(=O)c3cc(C(F)(F)F)ccn3)(C1)C2 [Compound 176, N-{3-[2-(4-chloro-3-fluorophenoxy)acetamido]bicyclo[1.1.1]pentan-1-yl}-4-(trifluoromethyl)pyridine-2-carboxamide]
The EC50 of the first is higher: 250 to 1000 nM for the first, 50 to 250 nM for the second. The second is the more potent here.

First: O=C(COc1ccc(Cl)c(F)c1)NC12CCC(NC(=O)c3ccc(OC(F)(F)F)cc3)(CC1)C(O)C2 (stereo not shown) [Compound 225, N-{4-[2-(4-chloro-3-fluorophenoxy)acetamido]-2-hydroxybicyclo[2.2.2]octan-1-yl}-4-(trifluoromethoxy)benzamide]
Second: O=C(COc1ccc(Cl)c(F)c1)NC12CCC(NC(=O)c3cccc(C(F)(F)F)n3)(CC1)CC2O (stereo not shown) [Compound 941, N-{4-[2-(4-chloro-3-fluorophenoxy)acetamido]-3-hydroxybicyclo[2.2.2]octan-1-yl}-6-(trifluoromethyl)pyridine-2-carboxamide]
The EC50 of the first is higher: 50 to 250 nM for the first, < 50 nM for the second.

First: CCn1cc(C(=O)NC23CC(NC(=O)COc4ccc(Cl)c(F)c4)(C2)C3)cn1 [Compound 252, N-{3-[2-(4-chloro-3-fluorophenoxy)acetamido]bicyclo[1.1.1]pentan-1-yl}-1-ethyl-1H-pyrazole-4-carboxamide]
Second: O=C(COc1ccc(Cl)c(F)c1)NC12CC(NC(=O)c3cncc(CO)c3)(C1)C2 [Compound 453, N-{3-[2-(4-chloro-3-fluorophenoxy)acetamido]bicyclo[1.1.1]pentan-1-yl}-5-(hydroxymethyl)pyridine-3-carboxamide]
The EC50 of the first is lower: 250 to 1000 nM for the first, 1000 to 2000 nM for the second.

Compared with `CN(C(=O)COc1ccc(Cl)c(F)c1)C12CC(N(C)C(=O)c3cnc(C(F)F)cn3)(C1)C2` [Compound 362, N-(3-{[(4-chloro-3-fluorophenoxy)acetyl](methyl)amino}bicyclo[1.1.1]pentan-1-yl)-5-(difluoromethyl)-N-methylpyrazine-2-carboxamide], `O=C(COc1ccc(Cl)c(F)c1)NC12CC(Nc3cnc(C(F)(F)F)nc3)(C1)C2` [Compound 755, 2-(4-chloro-3-fluorophenoxy)-N-(3-{[2-(trifluoromethyl)pyrimidin-5-yl]amino}bicyclo[1.1.1]pentan-1-yl)acetamide] is lower in EC50: > 2000 nM for the first, 250 to 1000 nM for the second.

First: O=C(COc1ccc(Cl)c(F)c1)NC12CC(NC(=O)c3cnc(C4CC4)o3)(C1)C2 [Compound 583, N-{3-[2-(4-chloro-3-fluorophenoxy)acetamido]bicyclo[1.1.1]pentan-1-yl}-2-cyclopropyl-1,3-oxazole-5-carboxamide]
Second: NC(=O)c1ccncc1C(=O)NC12CC(NC(=O)COc3ccc(Cl)c(F)c3)(C1)C2 [Compound 826, N^3-{3-[2-(4-chloro-3-fluorophenoxy)acetamido]bicyclo[1.1.1]pentan-1-yl}pyridine-3,4-dicarboxamide]
The EC50 of the first is lower: 50 to 250 nM for the first, 1000 to 2000 nM for the second.

`CC(=O)Nc1sccc1C(=O)NC12CC(NC(=O)COc3ccc(Cl)c(F)c3)(C1)C2` [Compound 876, 2-acetamido-N-{3-[2-(4-chloro-3-fluorophenoxy)acetamido]bicyclo[1.1.1]pentan-1-yl}thiophene-3-carboxamide] gave an EC50 of 250 to 1000 nM.
